Results taken from patent US20090221433A1, “SMALL MOLECULE PRINTING” (priority 2006, published 2009).

Assays:
[1] = tested on: anti-17β-estradiol antibody; experiment: Bioactive microarray binding profile, anti-17β-estradiol antibody; set-up: species or system rabbit; conditions: anti-17β-estradiol then labeled secondary antibody; replicate arrays
Procedure: (§1) To investigate the suitability of our approach for printing compounds that have not been intentionally synthesized with appendages for covalent capture, more than 300 commercially available bioactive compounds were printed onto isocyanate-functionalized slides. We screened these bioactive microarrays using rabbit primary antibodies against corticosterone, digitoxin, and 17β-estradiol, followed by a fluor-labeled goat anti-rabbit secondary antibody. The signal-to-noise ratio (SNR) was determined by calculating intensity at 635 nm and adjusting for local background for each feature on replicate arrays, and data were compared to replicate control arrays incubated with the labeled secondary antibody alone (FIG. 4). […] In the anti-corticosterone antibody binding profile, hydrocortisone (mean SNR 68.9), beclomethasone (63.3), and corticosterone (59.2), corticosteroids related in structure, scored as positives. […] 17β-estradiol (mean SNR 9.0), estriol (8.7) and estrone (7.3), primary estrogenic hormones varying in the number of reactive groups for capture, scored as positives in the anti-17β-estradiol binding profile.
(§2) Small-molecule microarray profiles with antibodies against natural products. […] Arrays were dried by centrifugation and scanned for fluorescence at 635 nm. Signal-to-noise ratio was calculated for each feature using adjusted diameters.

anti-digitoxin antibody = experiment: Bioactive microarray binding profile, anti-digitoxin antibody; set-up: species or system rabbit; conditions: anti-digitoxin then labeled secondary antibody; replicate arrays
Procedure: We screened these bioactive microarrays using rabbit primary antibodies against corticosterone, digitoxin, and 17β-estradiol, followed by a fluor-labeled goat anti-rabbit secondary antibody. The signal-to-noise ratio (SNR) was determined by calculating intensity at 635 nm and adjusting for local background for each feature on replicate arrays, and data were compared to replicate control arrays incubated with the labeled secondary antibody alone (FIG. 4).
Microarrays printed with natural products and bioactives were incubated with various antibodies to detect specific compounds. In the first incubation step, arrays were incubated with 300 μL of one of the following: PBST buffer (control), a 1:500 solution of rabbit anti-corticosterone whole antiserum in PBST, 1:500 solution of rabbit anti-17β-estradiol whole antiserum in PBST for 30 min at room temperature. The arrays were briefly rinsed with PBST and then washed twice in PBST. All arrays were then incubated with 300 μL of a 1:1000 solution of Alexa Fluor® 647 […] polyclonal secondary antibody in PBST for 30 min at room temperature. Probed arrays were rinsed in PBST, washed three times in PBST, and washed once in PBS. Arrays were dried by centrifugation and scanned for fluorescence at 635 nm. Signal-to-noise ratio was calculated for each feature using adjusted diameters.

[2] = tested on: Alexa Fluor 647 goat-anti-rabbit IgG; experiment: Bioactive microarray control, labeled secondary antibody alone; type: binding; conditions: labeled polyclonal secondary antibody alone
Procedure: as §1, §2

[3] = tested on: anti-corticosterone antibody; experiment: Bioactive microarray binding profile, anti-corticosterone antibody; conditions: anti-corticosterone then Alexa Fluor 647 goat-anti-rabbit; replicate arrays
Procedure: as §1, with “4). Six bioactives, with signal-to-noise ratios>3.0, were found in replicate arrays to bind to the labeled polyclonal secondary antibody alone. None of the compounds were autofluorescent at 635 nm as judged by arrays probed with PBS buffer alone (data not shown). Hygromycin B, an aminoglycoside antibiotic, gave the highest adjusted signal-to-noise ratio (mean SNR 47.6).” for “4).”
as §2, with “products. Microarrays printed with natural products and bioactives were incubated with various antibodies to detect specific compounds.” for “products.”

FKBP12 = FKBP12 (Homo sapiens, UniProt P62942); conditions: affinity of AP1497 for FKBP12; cited from earlier work
Chain of FKBP12 (P62942 whole entry, species assumed): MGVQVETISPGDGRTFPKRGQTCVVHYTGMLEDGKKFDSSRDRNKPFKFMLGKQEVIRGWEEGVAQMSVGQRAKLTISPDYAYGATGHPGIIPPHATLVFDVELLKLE

FKBP12-6xHis = biological target: T1, FKBP12-6xHis (Homo sapiens, UniProt P62942); conditions: Table 1; cited from earlier work
T1 construct: made in house
T1 sequence (P62942 whole entry): as the sequence (P62942 whole entry, species assumed) above

Question: Which “mean SNR (signal-to-noise ratio at 635 nm)” value [1] does the source give for C[C@]12CC[C@@H]3c4ccc(O)cc4CC[C@H]3[C@@H]1CC[C@@H]2O [17β-estradiol] here?
Answer: Its value is 9.0.

Question: With C[C@]12CC[C@H](O)C[C@H]1CC[C@@H]1[C@@H]2CC[C@]2(C)[C@@H](C3=CC(=O)OC3)[C@@H](O)C[C@]12O [Gitoxigenin] as the molecule, how does the “mean SNR (signal-to-noise ratio at 635 nm)” value (anti-digitoxin antibody) read?
Answer: Its value is 62.5.

Question: With CN[C@H]1C[C@@H](N)[C@H](O)[C@@H](O[C@@H]2O[C@H](CO)[C@H](O)[C@@H]3OC4(O[C@H]23)O[C@H]([C@@H](N)CO)[C@H](O)[C@H](O)[C@H]4O)[C@@H]1O (stereo partly drawn) [Hygromycin B] as the molecule, how does the “adjusted signal-to-noise ratio (mean SNR)” value [2] read?
Answer: The value was 47.6.

Question: Which “mean SNR (signal-to-noise ratio at 635 nm)” value [3] does the source give for C[C@H]1C[C@H]2[C@@H]3CCC4=CC(=O)C=C[C@]4(C)[C@@]3(Cl)[C@@H](O)C[C@]2(C)[C@@]1(O)C(=O)CO [beclomethasone] here?
Answer: The value was 63.3.

Question: Which “mean SNR (signal-to-noise ratio at 635 nm)” value (anti-digitoxin antibody) does the source give for C[C@@H]1O[C@@H](O[C@H]2CC[C@]3(C=O)[C@H]4CC[C@]5(C)[C@@H](C6=CC(=O)OC6)CC[C@]5(O)[C@@H]4CC[C@]3(O)C2)[C@H](O)[C@H](O)[C@H]1O [convallatoxin] here?
Answer: The value was 52.7.

Question: With C[C@]12C[C@H](O)[C@H]3[C@@H](CCC4=CC(=O)CC[C@@]43C)[C@@H]1CC[C@@H]2C(=O)CO [corticosterone] as the molecule, how does the “mean SNR (signal-to-noise ratio at 635 nm)” value [3] read?
Answer: The value was 59.2.

Question: For C[C@H]1O[C@@H](O[C@H]2[C@@H](O)C[C@H](O[C@H]3[C@@H](O)C[C@H](O[C@H]4CC[C@@]5(C)[C@H](CC[C@@H]6[C@@H]5CC[C@]5(C)[C@@H](C7=CC(=O)OC7)CC[C@]65O)C4)O[C@@H]3C)O[C@@H]2C)C[C@H](O)[C@@H]1O [digitoxin], which “mean SNR (signal-to-noise ratio at 635 nm)” value (anti-digitoxin antibody) is on record?
Answer: Its value is 15.1.

Question: With C[C@]12CC[C@@H]3c4ccc(O)cc4CC[C@H]3[C@@H]1C[C@@H](O)[C@@H]2O [estriol] as the molecule, how does the “mean SNR (signal-to-noise ratio at 635 nm)” value [1] read?
Answer: Its value is 8.7.

Question: Which “mean SNR (signal-to-noise ratio at 635 nm)” value [3] does the source give for C[C@]12CCC(=O)C=C1CC[C@@H]1[C@@H]2[C@@H](O)C[C@@]2(C)[C@H]1CC[C@]2(O)C(=O)CO [hydrocortisone] here?
Answer: The value was 68.9.

Question: With CC(=O)O[C@H]1C[C@H](O[C@H]2[C@@H](O)C[C@H](O[C@H]3[C@@H](O)C[C@H](O[C@H]4CC[C@@]5(C)[C@H](CC[C@@H]6[C@@H]5C[C@@H](O)[C@]5(C)[C@@H](C7=CC(=O)OC7)CC[C@]65O)C4)O[C@@H]3C)O[C@@H]2C)O[C@H](C)[C@H]1O[C@@H]1O[C@H](CO)[C@@H](O)[C@H](O)[C@H]1O [lanatoside C] as the molecule, how does the “mean SNR (signal-to-noise ratio at 635 nm)” value (anti-digitoxin antibody) read?
Answer: Its value is 24.0.

Question: For AP1497, which Kd (FKBP12) is on record?
Answer: Its Kd is 8.8 nM.

Question: What about the Kd (FKBP12-6xHis) of the same molecule?
Answer: The Kd was 18 nM.
